Patent US20050101595A1, “N-containing cycloalkyl-substituted amino-thiazole derivatives and pharmaceutical compositions for inhibiting cell proliferation and methods for their use” (PFIZER INC., priority 2003, published 2005)
Where a name gives a salt, the structure may show the parent alone. Read-outs that look alike come from different tables or passages of the source.

Tested on: HCT-116 cell line
Assay: Inhibition of cell growth, tetrazolium salt (MTT) assay
Format: cell-based
Settings: for % Inhibition HCT116 @ 250 nM: HCT116 cells; for % Inhibition HCT116 @ 250 nM / inhibition at 0.25 µM: compound at 250 nM; for IC50 / inhibition at 0.25 µM: Homo sapiens; for IC50: HCT-116, 120 h, MTT, three to five days, read-out: HCT-116 IC50; for inhibition at 0.25 µM: HCT-116, HCT116 cells, read-out: % Inhibition HCT116 @ 250 nM
Description: Inhibition of Cell Growth: Assessment of Cytotoxicity:
Inhibition of cell growth was measured using the tetrazolium salt assay, which is based on the ability of viable cells to reduce 3-(4,5-dimethylthiazol-2-yl)-2,5-[2H]-diphenyltetrazolium bromide (MTT) to formazan (Mossman, Journal of Immunological Methods, vol. 65 (1983), pp. 55-58). The water-insoluble purple formazan product was then detected spectrophotometrically. The HCT-116 cell line was used as a representative cancer cell line and grown in 96-well plates. Cells were plated in McCoy's 5A Medium at a volume of 135 μl/well. Plates were incubated for four hours before addition of inhibitor compounds. Different concentrations of inhibitor compounds were added in 0.5% (v/v) dimethylsulfoxide (15 μLuwell), and cells were incubated at 37° C. (5% CO2) for three to five days. At the end of the incubation, MTT was added to a final concentration of 0.2 mg/mL, and cells were incubated for 4 hours more at 37° C. After centrifugation of the plates and removal of medium, the absorbance of the formazan (solubilized in dimethylsulfoxide) was measured at 540 nm. […] All results were compared to control cells treated only with 0.5% (v/v) dimethylsulfoxide.

| Structure (SMILES) | inhibition at 0.25 µM [%] | also measured |
| --- | --- | --- |
| CC1CCCC(NCCS(=O)(=O)N2CCC(Nc3nc(N)c(C(=O)c4c(F)cccc4F)s3)CC2)C1 (mixture of isomers) [Example S57] |  | % Inhibition HCT116 @ 250 nM: 73% |
| CC1CCCN1CCS(=O)(=O)N1CCC(Nc2nc(N)c(C(=O)c3c(F)cccc3F)s2)CC1 (racemic) [Example S40] |  | % Inhibition HCT116 @ 250 nM: 93% |
| CN(C)CC#Cc1ccc(S(=O)(=O)N2CCC(Nc3nc(N)c(C(=O)c4c(F)cccc4F)s3)CC2)cc1 [Example I9, 1-(4-Amino-2-{1-[4-(3-dimethylamino-prop-1-ynyl)-benzenesulfonyl]-piperidin-4-ylamino}-thiazol-5-yl)-1-(2,6-difluoro-phenyl)-methanone D-Glucuronic Acid Salt] |  | IC50 (first HCT-116 column (c4)): 100 nM; IC50 (second HCT-116 column (c5)): 500 nM |
| C[C@H](NCCS(=O)(=O)N1CCC(Nc2nc(N)c(C(=O)c3c(F)cccc3F)s2)CC1)c1ccccc1 [Example K47] |  | IC50 (first HCT-116 column (c4)): 100 nM; IC50 (second HCT-116 column (c5)): 250 nM |
| Nc1nc(NC2CCN(S(=O)(=O)CCNCc3ccccc3)CC2)sc1C(=O)c1c(F)cccc1F [Example K48] |  | IC50 (first HCT-116 column (c4)): 170 nM; IC50 (second HCT-116 column (c5)): 500 nM |
| CC(C)(NCCS(=O)(=O)N1CCC(Nc2nc(N)c(C(=O)c3c(F)cccc3F)s2)CC1)c1ccccc1 [Example K49, (4-Amino-2-{1-[2-(1-methyl-1-phenyl-ethylamino)-ethanesulfonyl]-piperidin-4-ylamino}-thiazol-5-yl)-(2,6-difluoro-phenyl)-methanone] |  | IC50 (first HCT-116 column (c4)): 180 nM; IC50 (second HCT-116 column (c5)): 500 nM |
| Nc1nc(NC2CCN(S(=O)(=O)CCNCc3c(F)cccc3F)CC2)sc1C(=O)c1c(F)cccc1F [Example K50, (4-Amino-2-{1-[2-(2,6-difluoro-benzylamino)-ethanesulfonyl]-piperidin-4-ylamino}-thiazol-5-yl)-(2,6-difluoro-phenyl)-methanone] |  | IC50 (first HCT-116 column (c4)): 200 nM; IC50 (second HCT-116 column (c5)): 500 nM |
| CC(C)(C)CNCCS(=O)(=O)N1CCC(Nc2nc(N)c(C(=O)c3c(F)cccc3F)s2)CC1 [Example K51, (4-Amino-2-{1-[2-(2,2-dimethyl-propylamino)-ethanesulfonyl]-piperidin-4-ylamino}-thiazol-5-yl)-(2,6-difluoro-phenyl)-methanone] |  | IC50 (first HCT-116 column (c4)): 170 nM; IC50 (second HCT-116 column (c5)): 500 nM |
| Nc1nc(NC2CCN(S(=O)(=O)CCNCc3cccc(Cl)c3)CC2)sc1C(=O)c1c(F)cccc1F [Example K52, (4-Amino-2-{1-[2-(3-chloro-benzylamino)-ethanesulfonyl]-piperidin-4-ylamino}-thiazol-5-yl)-(2,6-difluoro-phenyl)-methanone] |  | IC50 (first HCT-116 column (c4)): 110 nM; IC50 (second HCT-116 column (c5)): 250 nM |
| Nc1nc(NC2CCN(S(=O)(=O)CCN(Cc3ccccc3)CC3CC3)CC2)sc1C(=O)c1c(F)cccc1F [Example K53, (4-Amino-2-{1-[2-(benzyl-cyclopropylmethyl-amino)-ethanesulfonyl]-piperidin-4-ylamino}-thiazol-5-yl)-(2,6-difluoro-phenyl)-methanone] |  | IC50 (first HCT-116 column (c4)): 230 nM; IC50 (second HCT-116 column (c5)): 560 nM |
| CCCN(CCS(=O)(=O)N1CCC(Nc2nc(N)c(C(=O)c3c(F)cccc3F)s2)CC1)CC1CC1 [Example S1] | 36 |  |
| CCCCN(CC#N)CCS(=O)(=O)N1CCC(Nc2nc(N)c(C(=O)c3c(F)cccc3F)s2)CC1 [Example S2] | 18 |  |
| CC(C)(C)N(CCO)CCS(=O)(=O)N1CCC(Nc2nc(N)c(C(=O)c3c(F)cccc3F)s2)CC1 [Example S3] | 25 |  |
| CN(CCO)CCS(=O)(=O)N1CCC(Nc2nc(N)c(C(=O)c3c(F)cccc3F)s2)CC1 [Example S4] | 25 |  |
| CCN(CCO)CCS(=O)(=O)N1CCC(Nc2nc(N)c(C(=O)c3c(F)cccc3F)s2)CC1 [Example S5] | 26 |  |
| Nc1nc(NC2CCN(S(=O)(=O)CCN(CCO)CCO)CC2)sc1C(=O)c1c(F)cccc1F [Example S6] | 13 |  |
| Nc1nc(NC2CCN(S(=O)(=O)CCN3CCCCCC3)CC2)sc1C(=O)c1c(F)cccc1F [Example S7] | 22 |  |
| CC(C)N(CCS(=O)(=O)N1CCC(Nc2nc(N)c(C(=O)c3c(F)cccc3F)s2)CC1)C1CCCCC1 [Example S8] | 91 |  |
| CN(CCS(=O)(=O)N1CCC(Nc2nc(N)c(C(=O)c3c(F)cccc3F)s2)CC1)C1CCCCC1 [Example S9] | 43 |  |
| CCN(CCS(=O)(=O)N1CCC(Nc2nc(N)c(C(=O)c3c(F)cccc3F)s2)CC1)C1CCCCC1 [Example S10] | 62 |  |
| CC(O)CN(CCS(=O)(=O)N1CCC(Nc2nc(N)c(C(=O)c3c(F)cccc3F)s2)CC1)CC(C)O (stereo not shown) [Example S11] | 13 |  |
| NC(=O)C1CCCN(CCS(=O)(=O)N2CCC(Nc3nc(N)c(C(=O)c4c(F)cccc4F)s3)CC2)C1 (stereo not shown) [Example S12] | 19 |  |
| Nc1nc(NC2CCN(S(=O)(=O)CCN3CCCCC3CO)CC2)sc1C(=O)c1c(F)cccc1F (stereo not shown) [Example S13] | 24 |  |
| CC1CCCC(C)N1CCS(=O)(=O)N1CCC(Nc2nc(N)c(C(=O)c3c(F)cccc3F)s2)CC1 (stereo not shown) [Example S14] | 91 |  |
| CC1CCCCN1CCS(=O)(=O)N1CCC(Nc2nc(N)c(C(=O)c3c(F)cccc3F)s2)CC1 (stereo not shown) [Example S15] | 46 |  |
| CC1CN(CCS(=O)(=O)N2CCC(Nc3nc(N)c(C(=O)c4c(F)cccc4F)s3)CC2)CC(C)O1 (stereo not shown) [Example S16] | 20 |  |
| Nc1nc(NC2CCN(S(=O)(=O)CCN3CCN(C=O)CC3)CC2)sc1C(=O)c1c(F)cccc1F [Example S17] | 19 |  |

| Structure (SMILES) | inhibition at 0.25 µM [%] | also measured |
| --- | --- | --- |
| Nc1nc(NC2CCN(S(=O)(=O)CCN3CCC(O)C3)CC2)sc1C(=O)c1c(F)cccc1F (stereo not shown) [Example S18] | 14 |  |
| Nc1nc(NC2CCN(S(=O)(=O)CCN3CCC[C@H]3CO)CC2)sc1C(=O)c1c(F)cccc1F [Example S19] | 15 |  |
| NC(=O)[C@@H]1CCCN1CCS(=O)(=O)N1CCC(Nc2nc(N)c(C(=O)c3c(F)cccc3F)s2)CC1 [Example S20] | 18 |  |
| Nc1nc(NC2CCN(S(=O)(=O)CCN3CCCC3)CC2)sc1C(=O)c1c(F)cccc1F [Example S21] | 35 |  |
| Nc1nc(NC2CCN(S(=O)(=O)CCN3CCSC3)CC2)sc1C(=O)c1c(F)cccc1F [Example S22] | 18 |  |
| Nc1nc(NC2CCN(S(=O)(=O)CCN3CCCC(CO)C3)CC2)sc1C(=O)c1c(F)cccc1F (stereo not shown) [Example S23] | 18 |  |
| Nc1nc(NC2CCN(S(=O)(=O)CCN3CCC(O)CC3)CC2)sc1C(=O)c1c(F)cccc1F [Example S24] | 14 |  |
| Nc1nc(NC2CCN(S(=O)(=O)CCN3CCC(CCO)CC3)CC2)sc1C(=O)c1c(F)cccc1F [Example S25] | 10 |  |
| CN(CCc1ccccn1)CCS(=O)(=O)N1CCC(Nc2nc(N)c(C(=O)c3c(F)cccc3F)s2)CC1 [Example S26] | 17 |  |
| Nc1nc(NC2CCN(S(=O)(=O)CCN3CCc4ccccc4C3)CC2)sc1C(=O)c1c(F)cccc1F [Example S27] | 27 |  |
| CN(CCS(=O)(=O)N1CCC(Nc2nc(N)c(C(=O)c3c(F)cccc3F)s2)CC1)Cc1ccccc1 [Example S28] | 80 |  |
| CN(CCc1ccccc1)CCS(=O)(=O)N1CCC(Nc2nc(N)c(C(=O)c3c(F)cccc3F)s2)CC1 [Example S29] | 18 |  |
| COC(CN(C)CCS(=O)(=O)N1CCC(Nc2nc(N)c(C(=O)c3c(F)cccc3F)s2)CC1)OC [Example S30] | 18 |  |
| C=CCN(C)CCS(=O)(=O)N1CCC(Nc2nc(N)c(C(=O)c3c(F)cccc3F)s2)CC1 [Example S31] | 27 |  |
| C=CCN(CC=C)CCS(=O)(=O)N1CCC(Nc2nc(N)c(C(=O)c3c(F)cccc3F)s2)CC1 [Example S32] | 69 |  |
| CC(C)N(CCS(=O)(=O)N1CCC(Nc2nc(N)c(C(=O)c3c(F)cccc3F)s2)CC1)C(C)C [Example S33] | 79 |  |
| CN(CCS(=O)(=O)N1CCC(Nc2nc(N)c(C(=O)c3c(F)cccc3F)s2)CC1)Cc1cccnc1 [Example S34] | 21 |  |
| CCN(CCS(=O)(=O)N1CCC(Nc2nc(N)c(C(=O)c3c(F)cccc3F)s2)CC1)CC(C)(C)O [Example S35] | 58 |  |
| CCCCN(CCO)CCS(=O)(=O)N1CCC(Nc2nc(N)c(C(=O)c3c(F)cccc3F)s2)CC1 [Example S36] | 17 |  |
| CCCCN(CCC#N)CCS(=O)(=O)N1CCC(Nc2nc(N)c(C(=O)c3c(F)cccc3F)s2)CC1 [Example S37] | 24 |  |
| CC(C)CN(C)CCS(=O)(=O)N1CCC(Nc2nc(N)c(C(=O)c3c(F)cccc3F)s2)CC1 [Example S38] | 55 |  |
| Nc1nc(NC2CCN(S(=O)(=O)CCN3CCCC(O)C3)CC2)sc1C(=O)c1c(F)cccc1F (stereo not shown) [Example S39] | 14 |  |
| CN(CCS(=O)(=O)N1CCC(Nc2nc(N)c(C(=O)c3c(F)cccc3F)s2)CC1)CC1OCCO1 [Example S41] | 18 |  |
| COC[C@@H]1CCCN1CCS(=O)(=O)N1CCC(Nc2nc(N)c(C(=O)c3c(F)cccc3F)s2)CC1 [Example S42] | 12 |  |
| CCN(CC)CCN(CC)CCS(=O)(=O)N1CCC(Nc2nc(N)c(C(=O)c3c(F)cccc3F)s2)CC1 [Example S43] | 13 |  |
| CC(C)N(CCS(=O)(=O)N1CCC(Nc2nc(N)c(C(=O)c3c(F)cccc3F)s2)CC1)Cc1ccccc1 [Example S44] | 55 |  |
